Test results from patent US20090048198A1, “COMPOSITIONS AND METHODS FOR NUCLEIC ACID DELIVERY SYSTEMS” (Northwestern University, priority 2007, published 2009).
Values joined by “and” are separate entries in the source; they are usually repeats but may differ in a detail not shown here. Equal entries are not always repeated.

Key:
[1] = DSC of hydrated cationic lipid dispersions and binary phase diagrams; assay type: physicochemical; settings: for melting transition Tm (solid-liquid crystalline): hydrated dispersions, DSC heating 30° C./h
Description: (§1) Chloroform solutions of cationic lipids were mixed in glass vials at the desired ratios, solvent was removed with a N2 stream and, subsequently, high vacuum. The lipid mixtures were hydrated in PBS (50 mM phosphate buffer, 100 mM NaCl, pH 7.2) overnight at room temperature and vortex-mixed for several minutes; then they were subjected to several cycles of freezing and thawing. Samples were subsequently equilibrated overnight at room temperature before measurement.
DSC measurements were performed using a VP-DSC Microcalorimeter (MicroCal Inc., Northampton, Mass.) at 30° C./h. Thermograms were analyzed using OriginLab (Northampton, Mass.) software. The onset and the completion temperatures of the phase transitions needed for the construction of the phase diagram were determined by the intersections of the peak slopes with the baseline on the thermograms. The maximums of the heat capacity curves were taken as the phase transition temperatures of the pure components. For asymmetric or split line shapes of the composite aggregates, the transition temperature was defined as that temperature at which the area of the endotherm was divided into equal halves.

[2] = tested on: Human umbilical artery endothelial cells (HUAECs); assay: Transfection of HUAECs with lipoplexes, β-galactosidase reporter assay; assay type: cell-based; settings: HUAEC cells in vitro; CMV-β-galactosidase plasmid; β-galactosidase activity 24 h after transfection
Description: Human umbilical artery endothelial cells (HUAECs) were obtained from Cambrex (Walkersville, Md.) were and maintained in EGM-2 MV containing 5% fetal bovine serum (FBS) (Cambrex) at 37° C. with 5% CO2. At confluence, the cells were passaged using 0.25 mg/ml Trypsin/EDTA (Cambrex) and were used at passages 5-10 for these experiments. It is noted that human endothelial cells, and particularly HUAECs, are known in the art to be difficult to transfect (see, Teifel, et al., Endothelium, New York, 5, 21-35 (1997); Krotz et al., J. Vasc. Res., 40:425-434 (2003); and Tanner et al., Cardiovascular Research, 35:522-528 (1997)) all of which are herein incorporated by reference. For example, it has been reported that the level of transfection for a reporter gene in human umbilical vein endothelial cells is less than 1% of that of HeLa cells (Edgell et al., BioTechniques, 25:264-272 (1998), herein incorporated by reference).
The cells were seeded in 96-well plates at 24 h before transfection at densities appropriate to give about 80% confluence at the time of transfection. CMV-β-galactosidase plasmid was purchased from Clontech Laboratories Inc. (Palo Alto, Calif.) and propagated and purified by Bayou Biolabs (Harahan, La.). […]

[3] = Synchrotron small-angle X-ray diffraction (SAXD) on heating; assay type: physicochemical; settings: SAXD heating scans 20-90° C.
Description: as §1
Measurements were performed at Argonne National Laboratory, Advanced Photon Source, DND-CAT (beamline 5-IDD) and BioCAT (beamline 18-ID), using 12 keV X-rays, as previously described [1 R. Koynova, R. C. MacDonald, Mixtures of Cationic Lipid O-Ethylphosphatidylcholine With Membrane Lipids and DNA: Phase Diagrams, Biophys. J. 85 (2003) 2449-2465]. The lipid concentration of the dispersions was 20 wt %. Samples were filled into glass capillaries (Charles Supper Co., Natick, Mass.) and flame-sealed. A Linkam thermal stage (Linkam Sci Instruments, Surrey, England) provided temperature control. Linear heating and cooling scans were performed at rates of 1-5° C./min. Exposure times were typically 0.5 sec. Data were collected using a MAR-CCD detector. Sample-to-detector distance was 1.8-2 m. […] Products of lipid degradation were not detected in these samples, and radiation damage of the lipids was not evident from their X-ray patterns.

## CCCCCCCCCCCCCC(=O)OC[C@H](COP(=O)(OCC)OCC[N+](C)(C)C)OC(=O)CCCCCCCCCCCCC (some centres unmarked) [EDMPC]
[1]
  phase at physiological temperature (37° C.) according to phase diagram: liquid crystalline phase
  melting transition Tm (solid-liquid crystalline): 24 °C
[2]
  transfection activity: better transfection agents than EDPPC

## CCCCCCCCCCCCCCCC(=O)OC[C@H](COP(=O)(OCC)OCC[N+](C)(C)C)OC(=O)CCCCCCCCCCCCCCC (some centres unmarked) [EDPPC]
[1]
  phase at physiological temperature (37° C.) according to phase diagram: solid phase
  melting transition Tm (solid-liquid crystalline): 42 °C
[2]
  transfection activity: still transfects DNA into cells

## CCCCCCCCCCCCCC[N+](C)(C)CCCCCCCCCCCCCC.[Br-] [diC14DAB, Ditetradecyldimethylammonium-bromide]
[3]
  temperature of solid-liquid crystalline (lamellar) transition on heating: 25 °C and ~26 °C
[1]
  melting transition Tm (solid-liquid crystalline): 26 °C

## CCCCCCCCCCCCCCCCCC[N+](C)(C)CCCCCCCCCCCCCCCCCC.[Br-] [diC18DAB, dioctadecyldimethylammonium-bromide]
[3]
  temperature of solid-liquid crystalline (lamellar) transition on heating: 47 °C
[1]
  phase at physiological temperature (37° C.) according to phase diagram: solid phase
  melting transition Tm (solid-liquid crystalline): ~50 °C
